From patent US6555547B1, “Method for treating a patient with neoplasia by treatment with a vinca alkaloid derivative” (Cell Pathways, Inc., priority 2000, dated 2003)
Entries after “also recorded” stand apart in the source; their conditions may differ.

Tests used:
[1] = system: Peak B from SW480, HTB-26, and LnCAP; test: Peak B cGMP PDE activity from SW480, HTB-26 and LnCAP (FPLC); type: biochemical; conditions: 100 nM; Peak B from SW480, HTB-26, LnCAP
Experimental: The novel Peak B was also isolated from two other neoplastic cell lines, a breast cancer cell line, HTB-26, and a prostate cancer cell line, LnCAP, by a procedure similar to the one above used to isolate it from SW480. The protocol was modified in several respects. To provide even greater reproducibility to allow comparison of different cell lines, a Pharmacia AKTA FPLC was used to control sample loading and elution on an 18 mL DEAE TrisAcryl M column. SW840 was run by this same procedure multiple times to provide a reference of Peak B. 200-400 million cells of SW480 were used for the profiles. 70 million cells of LnCAP were used for a profile (see FIGS. 22 and 23), and in a separate experiment 32 million cells of HTB-26 were used for a profile (see FIGS. 20 and 21). After re-suspending cells in homogenization buffer, samples were manually homogenized. FPLC buffer A was 8 mM TRIS-acetate, 5 mM Mg acetate, 0.1 mM EDTA, pH 7.5 and buffer B was 8 mM TRIS-acetate, 5 mM Mg acetate, 0.1 mM EDTA, 1 M Na acetate, pH 7.5. Supernatants were loaded onto the column at 1 mL per minute, followed by a wash with 60 mL buffer A at 1 mL per minute. A gradient was run from 0-15% buffer B in 60 mL, 15-50% buffer B in 60 mL, and 50-100% buffer B in 16 mL. During the gradient 1.5 mL fractions were collected.

[2] = molecular target: T1, cGMP binding sites of GST-cGB-PDE5 fusion protein (Homo sapiens, UniProt O76074); test: cGMP binding assay; conditions: 3H-cGMP 2 μM
T1 construct: made in house; host or cells: E. coli BL21 (DE3)
T1 sequence (O76074 46-539 limits assumed): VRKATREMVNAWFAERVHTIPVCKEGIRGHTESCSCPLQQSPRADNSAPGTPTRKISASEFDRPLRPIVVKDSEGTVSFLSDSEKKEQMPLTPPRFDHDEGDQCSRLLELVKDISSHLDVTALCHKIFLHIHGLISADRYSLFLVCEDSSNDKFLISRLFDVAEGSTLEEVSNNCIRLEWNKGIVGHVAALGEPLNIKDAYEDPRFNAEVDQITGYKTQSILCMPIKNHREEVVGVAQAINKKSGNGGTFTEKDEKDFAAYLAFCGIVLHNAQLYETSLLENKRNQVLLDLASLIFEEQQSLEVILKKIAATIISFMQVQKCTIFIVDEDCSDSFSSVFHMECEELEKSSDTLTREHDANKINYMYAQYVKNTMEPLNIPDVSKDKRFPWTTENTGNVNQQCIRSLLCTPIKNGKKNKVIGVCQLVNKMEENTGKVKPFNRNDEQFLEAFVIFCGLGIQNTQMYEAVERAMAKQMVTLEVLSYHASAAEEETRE

[3] = Toxicity study in dogs (capsules); type: in vivo
[4] = system: LNCaP prostate tumor cell line; test: Histone-associated DNA fragmentation in prostate tumor cells; type: cell-based; conditions: 50 μM, up to 4 days, free base
Experimental: The androgen-sensitive prostate tumor cell line, LNCaP (from ATCC (Rockville, Md.)) was propagated under standard conditions using […] medium containing 5% fetal calve serum and 2 mM glutamine. Primary prostate epithelial cell cultures (PrEC) derived from normal prostate (from Clonetics Inc. (San Diego, Calif.)) were grown under the same conditions as the tumor cell line except a serum-free medium optimized for the growth of such cultures was used (Clonetics Inc). For the experiments, LNCaP or PrEC cells were seeded in 96 well plates at a density of 10,000 cells per well. […] After various drug treatment times (4, 24, 48, 72, or 99 hours) the cells were lysed and processed for measurement of histone-associated DNA as an indicator of apoptotic cell death (see, Piazza et al., Cancer Research 57: 2452-2459, 1997).

[5] = Acute toxicity study in rats; type: in vivo
[6] = Seven-day dose-range finding study in rats; type: in vivo
[7] = in vivo
[8] = system: PrEC primary prostate epithelial cell cultures; test: Histone-associated DNA fragmentation in normal prostate epithelial cells; type: cell-based; conditions: 50 μM, up to 4 days
Experimental: The androgen-sensitive prostate tumor cell line, LNCaP (from ATCC (Rockville, Md.)) was propagated under standard conditions using […] medium containing 5% fetal calve serum and 2 mM glutamine. Primary prostate epithelial cell cultures (PrEC) derived from normal prostate (from Clonetics Inc. (San Diego, Calif.)) were grown under the same conditions as the tumor cell line except a serum-free medium optimized for the growth of such cultures was used (Clonetics Inc). For the experiments, LNCaP or PrEC cells were seeded in 96 well plates at a density of 10,000 cells per well. After 24 hours, the cells were treated with either vehicle (0.1% DMSO) or 50 μM Compound I (free base) solubilized in DMSO. After various drug treatment times (4, 24, 48, 72, or 99 hours) the cells were lysed and processed for measurement of histone-associated DNA as an indicator of apoptotic cell death (see, Piazza et al., Cancer Research 57: 2452-2459, 1997).

[9] = system: H460 large cell carcinoma cell line; test: Cell growth, alone and in combination with vinca alkaloid; type: cell-based, human
Experimental: (§1) Exisulind and Compound I were analyzed using two human lung cancer cell lines; H460, a large cell carcinoma with a doubling time of 16 hours, and Calu-6, an adenocarcinoma with a doubling time of 21 hours. Exisulind and Compound I were analyzed alone and in combination with the vinca alkaloid, Navelbine™ vinorelbine. The cytotoxic agents were administered for 1 hour, while exisulind and Compound I were administered for either 1 hour or given as a continuous exposure.
(§2) Cells were plated on day 0 and allowed to attach. On day 1, the cells were exposed to one of the cytotoxic agents dissolved in media pre-warmed to 37° C. and incubated at 37° C. for 1 hour. The cells were then washed twice and re-fed pre-warned media with or without either exisulind or Compound I and incubated for one hour at 37° C. After the one-hour incubation, the cells were washed twice, re-fed, and returned to the incubator; the continuous exposure cultures were not washed and re-fed. Appropriate controls were included for each condition. […] All data points were done in triplicate and the mean graphed as a percent of control growth.
(§3) Exisulind and Compound I were first dissolved in DMSO and brought to the desired concentrations by slowly adding warm media to the drug-DMSO solution to prevent precipitation.

[10] = system: Calu-6 adenocarcinoma cell line; test: as above; type: cell-based, human
Experimental: as §1, §2, §3

[11] = rat, in vivo, 2000 mg/kg/day

Structure (SMILES): O=C(O)C1CCN(c2nc(NCc3ccc4c(c3)OCO4)c3cc(Cl)ccc3n2)CC1 [Compound E4021]
- Sensitivity of Peak B cGMP PDE activity [1]: resistant
- Competition with cGMP for binding of GST-cGB-PDE5 [2]: do not bind to the cGMP binding sites of PDE5

Structure (SMILES): CC1=C(CC(=O)NCc2ccccc2)c2cc(F)ccc2/C1=C\c1ccncc1.Cl [Compound I, (Z)-5-fluoro-2-methyl-(4-pyridylidene)-3-(N-benzyl)indenylacetamide hydrochloride]
- oral LD50 [3]: greater than 1000 mg/kg
- Toxicity, single dose in capsules ([3]; 1000 mg/kg): no signs of toxicity
- Drug-related effects, single dose and seven consecutive doses ([3]; 1000 mg/kg/day): At no time in either dosing phase were any obvious signs of drug-related effects observed
- Histone-associated fragmented DNA [4]: A significant increase in fragmented DNA was detected after 24 hours of treatment; also recorded: time-dependent increase in the amount of histone-associated fragmented DNA
- intraperitoneal LD50 [5]: greater than 1000 mg/kg
- oral LD50 [5]: > 4000 mg/kg
- Acute toxicity, single intraperitoneal dose ([5]; intraperitoneal, 1000 mg/kg): reduced body weight gain, with mesenteric adhesions seen in some animals
- Acute toxicity, single oral dose ([5]; oral, 4000 mg/kg): body weight gains were slightly reduced
- Acute toxicity, single oral doses ([5]; oral, up to and including 2000 mg/kg): no observable signs of toxicity
- Seven-day toxicity findings ([6]; 50 mg/kg/day): no observable signs of toxicity
- Seven-day toxicity findings ([6]; 500 mg/kg/day): treatment-related effects were limited to an increase in absolute and relative liver weights in female rats
- Seven-day toxicity findings ([6]; 2000 mg/kg/day): labored breathing and/or abnormal respiratory sounds, decreased weights gains and food consumption in male rats, and increased liver weights in female rats
- Seven-day hematology, blood chemistry, microscopic pathology ([6]; any dose level): No hematological or blood chemistry changes nor any microscopic pathology changes
- Safety [7]: safe in animal studies and in a single, escalating dose human study
- DNA fragmentation [8]: did not affect DNA fragmentation for up to 4 days of treatment
- Strength in inhibiting cell growth relative to exisulind [9]: 80-100 fold
- Strength in inhibiting cell growth relative to exisulind ([10]; Calu-6): 80-100 fold
- % of control growth ([10]; Calu-6, 1-hour exposure, 5 mcg/ml): 47%
- Lower concentration required on continuous exposure than 1-hour exposure for same effect ([10]; FIGS. 28-29, 32-33): 25 fold
- Effect when combined with vinca alkaloid ([10]; both cell lines (Calu-6, H460), 1-hour and continuous exposures): additive cytotoxic effect
- 28-day histopathological evaluation [11]: traces of follicular cell hypertrophy, increased numbers of mitotic figures (suggestive of possible cell proliferation) in the thyroid gland and mild centrilobular hypertrophy in the liver
- 28-day liver weights [11]: statistically significant increase in liver weights
- 28-day thyroid weights [11]: statistically significant increases in thyroid weights
